pIC50: −log10 of the molar value.
How the values were obtained:
CDK9/Cyclin T1 = CDK9/Cyclin T1 (Homo sapiens (Human), UniProt P50750); test: CDK9 enzyme assay (LANCE ULight TR-FRET kinase assay); format: biochemical; conditions: 1000 μM ATP, 100 nM ULight MBP, kinase reaction 1 hour
Experimental: CDK9 enzyme activities were measured using LANCE ULight TR-FRET kinase assay reagents (PerkinElmer, Waltham, Mass.). Compounds were diluted in 100% DMSO then diluted with 1:10 in serine/threonine kinase assay buffer containing 20 mM HEPES, 10 mM MgCl2, […], and 0.0075% Triton X-100. Equal volume of the compound dilutions was added to a final reaction mixture containing LANCE detection buffer (PerkinElmer CR97-100), 100 nM ULight MBP (PerkinElmer TRF0109M), 1000 μM ATP, and CDK9/Cyclin T1 (Carna Biosciences 04-110). The kinase reaction was carried out for 1 hour before addition of stopping buffer to a final of 20 mM EDTA and 0.5 nM of LANCE Ultra Europium anti-phospho-MBP antibody (PerkinElmer TRF0201M) in LANCE detection buffer. The reaction was incubated for 1 hour and the signal was read in Envision in TR-FRET mode (excitation at 320 nm and emission at 615/665 nm).

H929 cells = test: Cell viability assay (Cell TiterGlo); format: cell-based; conditions: Homo sapiens, NCI-H929, 24 hours at 37° C., Cell TiterGlo luminescence
Experimental: The cell viability assay was performed using H929 cells. Cells were seeded in 96-well plates at 10,000 cells/well and, after overnight incubation, treated with compounds in a dose response of 3-fold dilutions from 10 μM to 0.005 μM ([…], 0.1% final DMSO concentration). After 24 hours at 37° C., cell viability was measured using Cell TiterGlo reagent (Promega) with a luminescence reader.

Sequence of CDK9/Cyclin T1 (P50750 whole entry): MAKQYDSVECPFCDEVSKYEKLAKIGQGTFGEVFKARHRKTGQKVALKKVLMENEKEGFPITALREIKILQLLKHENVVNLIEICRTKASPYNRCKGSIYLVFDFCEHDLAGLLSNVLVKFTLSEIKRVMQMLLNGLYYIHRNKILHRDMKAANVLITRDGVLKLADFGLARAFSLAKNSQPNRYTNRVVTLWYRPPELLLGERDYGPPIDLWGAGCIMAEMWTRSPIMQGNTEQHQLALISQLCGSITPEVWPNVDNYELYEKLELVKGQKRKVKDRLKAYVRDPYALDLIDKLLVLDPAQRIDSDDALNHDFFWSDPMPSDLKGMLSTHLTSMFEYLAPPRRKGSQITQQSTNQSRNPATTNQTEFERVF
Sequence of CDK9/Cyclin T1 (O60563 whole entry partner): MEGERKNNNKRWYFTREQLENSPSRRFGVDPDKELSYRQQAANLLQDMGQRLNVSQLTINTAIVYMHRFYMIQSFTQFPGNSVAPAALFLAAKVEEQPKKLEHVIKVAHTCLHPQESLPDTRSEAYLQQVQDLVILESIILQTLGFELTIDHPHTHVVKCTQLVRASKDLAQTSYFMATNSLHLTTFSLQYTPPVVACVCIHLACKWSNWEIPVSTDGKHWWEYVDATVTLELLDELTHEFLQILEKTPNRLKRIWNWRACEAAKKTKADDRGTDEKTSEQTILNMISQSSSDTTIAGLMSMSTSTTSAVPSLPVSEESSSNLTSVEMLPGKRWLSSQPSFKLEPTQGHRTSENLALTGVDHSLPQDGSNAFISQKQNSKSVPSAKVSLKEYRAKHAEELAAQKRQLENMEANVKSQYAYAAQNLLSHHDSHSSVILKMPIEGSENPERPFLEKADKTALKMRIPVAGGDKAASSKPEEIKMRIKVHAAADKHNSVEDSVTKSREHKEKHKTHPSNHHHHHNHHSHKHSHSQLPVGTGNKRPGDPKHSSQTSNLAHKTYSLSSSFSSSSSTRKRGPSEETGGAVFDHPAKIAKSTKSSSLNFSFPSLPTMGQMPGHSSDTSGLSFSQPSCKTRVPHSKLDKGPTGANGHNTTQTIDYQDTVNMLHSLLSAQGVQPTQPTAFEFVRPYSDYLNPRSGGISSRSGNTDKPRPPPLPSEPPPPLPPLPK

Row | pIC50 (CDK9/Cyclin T1) | pIC50 (H929 cells) | Compound
1 | 7.60 | 6.82 | CN1Cc2c(C3=CCN(S(C)(=O)=O)CC3)[nH]c3nccc(c23)-c2cc(F)ccc21 [Example 4, 10-fluoro-7-methyl-5-[1-(methylsulfonyl)-1,2,3,6-tetrahydropyridin-4-yl]-6,7-dihydro-4H-3,4,7-triazadibenzo[cd,f]azulene]
2 | 7.33 | 6.51 | COC(=O)C[C@H]1CC[C@@H](N2CC=C(c3[nH]c4nccc5c4c3CN(C)c3cc(F)c(F)cc3-5)CC2)CC1 [Example 134, methyl{cis-4-[4-(9,10-difluoro-7-methyl-6,7-dihydro-4H-3,4,7-triazadibenzo[cd,f]azulen-5-yl)-3,6-dihydropyridin-1(2H)-yl]cyclohexyl}acetate]
3 | 7.00 | 6.60 | CN(CC(O)CO)C(=O)CN1CC2C=C(c3[nH]c4nccc5c4c3CN(C)c3ccc(F)cc3-5)CC2C1 (stereo not shown) [Example 85, N-(2,3-dihydroxypropyl)-2-[5-(10-fluoro-7-methyl-6,7-dihydro-4H-3,4,7-triazadibenzo[cd,f]azulen-5-yl)-3,3a,4,6a-tetrahydrocyclopenta[c]pyrrol-2(1H)-yl]-N-methylacetamide]
4 | 6.82 | 6.82 | CN(C)C(=O)CN1CCC=C(c2[nH]c3nccc4c3c2CN(C)c2ccc(F)cc2-4)CC1 [Example 88, 2-[4-(10-fluoro-7-methyl-6,7-dihydro-4H-3,4,7-triazadibenzo[cd,f]azulen-5-yl)-2,3,6,7-tetrahydro-1H-azepin-1-yl]-N,N-dimethylacetamide]
5 | 6.38 | 6.24 | CN(C)C(=O)CN1CCC=C(c2[nH]c3nccc4c3c2CN(C)c2ccc(F)cc2-4)C1 [Example 97, 2-[5-(10-fluoro-7-methyl-6,7-dihydro-4H-3,4,7-triazadibenzo[cd,f]azulen-5-yl)-3,6-dihydropyridin-1(2H)-yl]-N,N-dimethylacetamide]
6 | 5.85 |  | CCC1c2c(C3=CCN(C(=O)OC(C)(C)C)CC3)[nH]c3nccc(c23)-c2cc(F)ccc2N1C (stereo not shown) [Example 8, tert-butyl 4-(6-ethyl-10-fluoro-7-methyl-6,7-dihydro-4H-3,4,7-triazadibenzo[cd,f]azulen-5-yl)-3,6-dihydropyridine-1(2H)-carboxylate]
7 |  | 6.89 | CN1Cc2c(C3=CCN(S(C)(=O)=O)CC3)[nH]c3ncc(F)c(c23)-c2cc(F)ccc21 [Example 68, 1,10-difluoro-7-methyl-5-[1-(methylsulfonyl)-1,2,3,6-tetrahydropyridin-4-yl]-6,7-dihydro-4H-3,4,7-triazadibenzo[cd,f]azulene]
8 | 6.62 |  | CN1Cc2c(C3=CCCN(CC(=O)O)C3)[nH]c3nccc(c23)-c2cc(F)ccc21 [Example 112, [5-(10-fluoro-7-methyl-6,7-dihydro-4H-3,4,7-triazadibenzo[cd,f]azulen-5-yl)-3,6-dihydropyridin-1(2H)-yl]acetic acid]
9 | 7.08 |  | CC(C(=O)O)=C1CCC(N2CC=C(c3[nH]c4nccc5c4c3CN(C)c3ccc(F)cc3-5)CC2)CC1 (stereo not shown) [Example 176, 2-{4-[4-(10-fluoro-7-methyl-6,7-dihydro-4H-3,4,7-triazadibenzo[cd,f]azulen-5-yl)-3,6-dihydropyridin-1(2H)-yl]cyclohexylidene}propanoic acid]
10 | 5.55 |  | CN1Cc2c(C3CCN(CC(=O)OC(C)(C)C)CC3)[nH]c3nccc(c23)-c2cc(F)ccc21 [Example 22, tert-butyl[4-(10-fluoro-7-methyl-6,7-dihydro-4H-3,4,7-triazadibenzo[cd,f]azulen-5-yl)piperidin-1-yl]acetate]
11 |  | 6.03 | CN1Cc2c(C3=CCN(C(=O)OC(C)(C)C)CC3)[nH]c3nccc(c23)-c2cc(F)ccc21 [Example 2, tert-butyl 4-(10-fluoro-7-methyl-6,7-dihydro-4H-3,4,7-triazadibenzo[cd,f]azulen-5-yl)-3,6-dihydropyridine-1(2H)-carboxylate]
12 | 6.82 |  | CN1Cc2c(C3CCN(CC(=O)O)CC3)[nH]c3nccc(c23)-c2cc(F)ccc21 [Example 23, [4-(10-fluoro-7-methyl-6,7-dihydro-4H-3,4,7-triazadibenzo[cd,f]azulen-5-yl)piperidin-1-yl]acetic acid]
13 |  | 7.03 | CNC(=O)N1CC=C(c2[nH]c3nccc4c3c2CN(C)c2ccc(F)cc2-4)CC1 [Example 13, 4-(10-fluoro-7-methyl-6,7-dihydro-4H-3,4,7-triazadibenzo[cd,f]azulen-5-yl)-N-methyl-3,6-dihydropyridine-1(2H)-carboxamide]
14 | 7.24 |  | COC(=O)C[C@H]1CC[C@H](N2CC=C(c3[nH]c4nccc5c4c3CN(C)c3cc(F)c(F)cc3-5)CC2)CC1 [Example 133, methyl{trans-4-[4-(9,10-difluoro-7-methyl-6,7-dihydro-4H-3,4,7-triazadibenzo[cd,f]azulen-5-yl)-3,6-dihydropyridin-1(2H)-yl]cyclohexyl}acetate]

Row | Compound | pIC50 (CDK9/Cyclin T1) | pIC50 (H929 cells)
15 | O=C(O)CC1CCC(N2CC=C(c3[nH]c4nccc5c4c3COc3ccc(F)cc3-5)CC2)CC1 (stereo not shown) [Example 165, {4-[4-(10-fluoro-4,6-dihydro-7-oxa-3,4-diazadibenzo[cd,f]azulen-5-yl)-3,6-dihydropyridin-1(2H)-yl]cyclohexyl}acetic acid] | 6.41 | 6.01
16 | CN1Cc2c(C3=CCN(CC(=O)N4CC(O)C4)CC3)[nH]c3ncc(F)c(c23)-c2cc(F)ccc21 [Example 72, 2-[4-(1,10-difluoro-7-methyl-6,7-dihydro-4H-3,4,7-triazadibenzo[cd,f]azulen-5-yl)-3,6-dihydropyridin-1(2H)-yl]-1-(3-hydroxyazetidin-1-yl)ethanone] | 7.10 | 7.68
17 | CN1Cc2c(C3=CCN(C4CCC(C(=O)O)CC4)CC3)[nH]c3nccc(c23)-c2ccccc21 (stereo not shown) [Example 172, 4-[4-(7-methyl-6,7-dihydro-4H-3,4,7-triazadibenzo[cd,f]azulen-5-yl)-3,6-dihydropyridin-1(2H)-yl]cyclohexanecarboxylic acid] | 6.92 | 
18 | CN1Cc2c(C3=CCN([C@H]4CC[C@@H](CC(=O)O)CC4)CC3)[nH]c3nccc(c23)-c2ccccc21 [Example 170, {cis-4-[4-(7-methyl-6,7-dihydro-4H-3,4,7-triazadibenzo[cd,f]azulen-5-yl)-3,6-dihydropyridin-1(2H)-yl]cyclohexyl}acetic acid] | 6.96 | 
19 | CN(CCO)C(=O)CN1CC=C(c2[nH]c3ncc(F)c4c3c2CN(C)c2ccc(F)cc2-4)CC1 [Example 71, 2-[4-(1,10-difluoro-7-methyl-6,7-dihydro-4H-3,4,7-triazadibenzo[cd,f]azulen-5-yl)-3,6-dihydropyridin-1(2H)-yl]-N-(2-hydroxyethyl)-N-methylacetamide] |  | 7.68
20 | CN1Cc2c(C3=CCN([C@H]4CC[C@H](C(=O)O)CC4)CC3)[nH]c3nccc(c23)-c2ccccc21 [Example 171, trans-4-[4-(7-methyl-6,7-dihydro-4H-3,4,7-triazadibenzo[cd,f]azulen-5-yl)-3,6-dihydropyridin-1(2H)-yl]cyclohexanecarboxylic acid] | 6.82 | 
21 | CN1Cc2c(C3=CCN([C@H]4CC[C@H](CC(=O)O)CC4)CC3)[nH]c3nccc(c23)-c2ccccc21 [Example 169, {trans-4-[4-(7-methyl-6,7-dihydro-4H-3,4,7-triazadibenzo[cd,f]azulen-5-yl)-3,6-dihydropyridin-1(2H)-yl]cyclohexyl}acetic acid] | 7.05 | 
